This note sets out measurements from US10987354B2, “Inhibitors of influenza virus replication and uses thereof” (SUNSHINE LAKE PHARMA CO., LTD., priority 2016, dated 2021).

Like-named read-outs stand apart in the source and are kept apart here. Where only a bound is given, the exact number is not on record here.

In one series the test system is virus H1N1 A/Weiss/43. Nature of the series: microbe, parasite or virus in culture. Format: cell-based. As to conditions: Influenza A virus, H1N1, 120 h; MDCK cells, CPE, 5 days, CCK-8; read-out: EC50, inhibitory activity against influenza virus (A/Weiss/43(H1N1)).
In series [1] the test system is Influenza B virus-B/Lee/40. Nature of the series: microbe, parasite or virus in culture. As to conditions: 72 h, read-out: EC50, inhibitory activity against influenza virus (Influenza B virus-B/Lee/40). Type of series: cell-based.
The nature of another series: in vivo. Particulars: SD, rat.
Where [2] appears, read: MDCK cells, CPE, 3 days, CellTiter.

Procedure for in vivo: The compounds disclosed herein were administered in form of a saline solution containing 5% DMSO, 5% Kolliphor HS 15 and 90% Saline. For intravenous administration (iv), the animals were administered with a dose of 1 mg/kg, and blood samples (0.3 mL) were collected at the time points of 0.083, 0.25, 0.5, 1.0, 2.0, 5.0, 7.0 and 24 h after drug administration, then each blood sample was processed to separate plasma by centrifugation at 3000 rpm or 4000 rpm for 10 minutes. For oral administration (po), the animals were administered with a dose of 5 mg/kg, and blood samples (0.3 mL) were collected at the time points of 0.25, 0.5, 1.0, 2.0, 5.0, 7.0 and 24 h after drug administration, then each blood sample was processed to separate plasma by centrifugation at 3000 rpm or 4000 rpm for 10 minutes. Plasma samples were collected and stored at −20° C. or −70° C. until LC/MS/MS analysis.

`CC(C)n1ccc2c(N[C@H]3C4CCC(CC4)[C@@H]3C(=O)O)nc(-c3c[nH]c4ncc(Cl)nc34)nc21` [Example 20, (2S,3S)-3-((2-(2-chloro-5H-pyrrolo[2,3-b]pyrazin-7-yl)-7-isopropyl-7H-pyrrolo[2,3-d]pyrimidin-4-yl)amino)bicyclo[2.2.2]octane-2-carboxylic Acid]: the EC50 is 0.192 nM in the series with virus H1N1 A/Weiss/43 and 1620 nM in series [1] (setting [2]).

With `O=C(O)[C@H]1C2CCC(CC2)[C@@H]1Nc1nc(-c2c[nH]c3ncc(Cl)nc23)nc(-n2cccc2)c1F` [Example 60, (2S,3S)-3-((2-(2-chloro-5H-pyrrolo[2,3-b]pyrazin-7-yl)-5-fluoro-6-(1H-pyrrol-1-yl)pyrimidin-4-yl)amino)bicyclo[2.2.2]octane-2-carboxylic Acid], the EC50 in series [1] (setting [2]) was 26400 nM.

Turning to `O=C(O)C1C2CCC(CC2)C1Nc1nc(-c2c[nH]c3ncc(F)cc23)ncc1F` (stereo not shown) [JNJ-872, reference compound], the EC50 in series [1] (MDCK) is over 50000 nM.

Regarding `CC(C)(C)[C@@H](CC(=O)O)Nc1nc(-c2c[nH]c3ncc(Cl)nc23)nc(-c2ccco2)c1F` [Example 8, (R)-3-((2-(2-chloro-5H-pyrrolo[2,3-b]pyrazin-7-yl)-5-fluoro-6-(furan-2-yl)pyrimidin-4-yl)amino)-4,4-dimethylpentanoic Acid], the EC50 in the series on virus H1N1 A/Weiss/43 turned out to be 0.394 nM. In the series “in vivo” (iv, 1 mg/kg), this compound showed an AUC(0-inf) of 1550 ng·h/mL, an AUC(0-t) of 1540 ng·h/mL and a clearance of 187 mL/min/kg. In “in vivo” (po, 5 mg/kg), this compound yielded an AUC(0-inf) of 5440 ng·h/mL and an AUC(0-t) of 5420 ng·h/mL.

As for `O=C(O)[C@H]1C2CCC(CC2)[C@@H]1Nc1nc(-c2c[nH]c3ncc(Cl)nc23)nc(-c2ccc(C3CC3)s2)c1F` [Example 27, (2S,3S)-3-((2-(2-chloro-5H-pyrrolo[2,3-b]pyrazin-7-yl)-6-(5-cyclopropylthiophen-2-yl)-5-fluoropyrimidin-4-yl)amino)bicyclo[2.2.2]octane-2-carboxylic Acid], the EC50 in the series with virus H1N1 A/Weiss/43 worked out at 0.024 nM. Also, in “in vivo” (iv, 1 mg/kg), the AUC(0-inf) is 1960 ng·h/mL, the AUC(0-t) came to 1960 ng·h/mL and the clearance is 144 mL/min/kg. In “in vivo” (po, 5 mg/kg), the AUC(0-inf) is 7250 ng·h/mL and the AUC(0-t) worked out at 7170 ng·h/mL.
